Values of other authors in PMC7904743, “WIDOCK: a reactive docking protocol for virtual screening of covalent inhibitors” (Journal of Computer-Aided Molecular Design, 2021).
Where two headings read alike, the source gives them in different places.

Experiments:
NUDT7 = conditions: protein labeling at 200 μM; experimental actives if % labeling higher than 50%; cited from earlier work
OTUB2 = conditions: experimental actives if % labeling higher than 50%, cited from earlier work
[1] = thiol reactivity, cited from earlier work
[2] = natural log of average kinetic rate constant
[3] = natural log of average rate constant
[4] = natural log of average rate constant k
[5] = natural logarithm of average rate constant

SMILES	NUDT7 % labeling (NUDT7) [%]	OTUB2 % labeling (OTUB2; OTUB2 protein labeling) [%]	ln(avg k) [1, 2]	ln(avg k) [1, 3]	OTUB2 % labeling (OTUB2) [%]	ln(avg k) [1, 4]	ln(avg k) [1, 5]
O=C(CCl)N1CCN(Cc2ccccc2)C1=O [PCM-0102919, O=C(CCl)N1CCN(Cc2ccccc2)C1=O]	0	10	-18.275	-18.275			
O=C(CCl)Nc1cccc(Cl)c1 [PCM-0102198, O=C(CCl)Nc1cccc(Cl)c1]	28				37	-16.004	-16.004
C=CC(=O)NC(=O)Nc1ccccc1 [PCM-0102883, C=CC(=O)NC(=O)Nc1ccccc1]	0	0	-16.619	-16.619			
N#CCN(C(=O)CCl)c1ccccc1 [PCM-0102471, N#CCN(C(=O)CCl)c1ccccc1]	0				19	-15.586	-15.586
Cc1sc(NC(=O)CCl)c(C)c1C [PCM-0102968, Cc1sc(NC(=O)CCl)c(C)c1C]	0	0	-16.020	-16.020			
O=C(CCl)NC1CCOc2ccccc21 (centres unmarked) [PCM-0102871, O=C(CCl)NC1CCOc2ccccc21]	0	44	-16.366	-16.366			
CN(Cc1cc(C#N)ccc1F)C(=O)CCl [PCM-0102897, CN(Cc1cc(C#N)ccc1F)C(=O)CCl]	7	0	-15.579	-15.579			
Cc1ccccc1CC(=O)NNC(=O)CCl [PCM-0102829, Cc1ccccc1CC(=O)NNC(=O)CCl]	0	30	-17.272	-17.272			
CNC(=O)C1CCCN1C(=O)CCl (centres unmarked) [PCM-0102518, CNC(=O)C1CCCN1C(=O)CCl]	0				0	-16.106	-16.106
CC1CCC(C#N)(N(C)C(=O)CCl)CC1 (centres unmarked) [PCM-0102251, CC1CCC(C#N)(N(C)C(=O)CCl)CC1]	5				0	-15.448	-15.448
O=C(CCl)N1CCCC1c1cccs1 (centres unmarked) [PCM-0102393, O=C(CCl)N1CCCC1c1cccs1]	36				0	-15.246	-15.246
CC(NC(=O)CCl)c1ccc(Br)cc1 (centres unmarked) [PCM-0102374, CC(NC(=O)CCl)c1ccc(Br)cc1]	23				34	-16.325	-16.325
O=C(CCl)N1CCN(S(=O)(=O)c2ccc(F)c(F)c2)CC1 [PCM-0102361, O=C(CCl)N1CCN(S(=O)(=O)c2ccc(F)c(F)c2)CC1]	0				0	-15.093	-15.093
O=C(CCl)NNC(=O)c1ccc(F)cc1 [PCM-0102430, O=C(CCl)NNC(=O)c1ccc(F)cc1]	0				31	-17.459	-17.459
CC(C)N(C(=O)CCl)c1ccccc1 [PCM-0102272, CC(C)N(C(=O)CCl)c1ccccc1]	22				0	-15.780	-15.780
CC(=O)c1ccccc1NC(=O)CCl [PCM-0102282, CC(=O)c1ccccc1NC(=O)CCl]	0				0	-16.331	-16.331
O=C(CCl)Nc1cc(C(=O)O)ccc1Cl [PCM-0102590, O=C(CCl)Nc1cc(C(=O)O)ccc1Cl]	0				0	-17.114	-17.114
CC(NC(=O)CCl)C1CC2CCC1C2 (centres unmarked) [PCM-0102572, CC(NC(=O)CCl)C1CC2CCC1C2]	0				0	-17.138	-17.138

SMILES	NUDT7 % labeling (NUDT7) [%]	OTUB2 % labeling (OTUB2; OTUB2 protein labeling) [%]	ln(avg k) [1, 2]	ln(avg k) [1, 3]	OTUB2 % labeling (OTUB2) [%]	ln(avg k) [1, 4]	ln(avg k) [1, 5]
Cc1ccc(CN(C)C(=O)CCl)c(C)c1 [PCM-0102552, Cc1ccc(CN(C)C(=O)CCl)c(C)c1]	19				0	-16.104	-16.104
Cc1nc(-c2ccc(C)c(NC(=O)CCl)c2)n[nH]1 [PCM-0103052, Cc1nc(-c2ccc(C)c(NC(=O)CCl)c2)n[nH]1]	12	9	-16.586	-16.586			
CC(C)(C)c1nnc(NC(=O)CCl)s1 [PCM-0102736, CC(C)(C)c1nnc(NC(=O)CCl)s1]	0	0	-15.861	-15.861			
O=C(CCl)Nc1cc2c(cc1Cl)OCO2 [PCM-0102209, O=C(CCl)Nc1cc2c(cc1Cl)OCO2]	13				27	-16.385	-16.385
O=C(CCl)N1c2ccccc2OCC1c1ccccc1 (centres unmarked) [PCM-0102266, O=C(CCl)N1c2ccccc2OCC1c1ccccc1]	11				0	-16.335	-16.335
Cc1cc(Cl)ccc1NC(=O)CCl [PCM-0102214, Cc1cc(Cl)ccc1NC(=O)CCl]	8				39	-16.385	-16.385
Cc1ccc(C)c(S(=O)(=O)N2CCN(C(=O)CCl)CC2)c1 [PCM-0102353, Cc1ccc(C)c(S(=O)(=O)N2CCN(C(=O)CCl)CC2)c1]	19				6	-15.325	-15.325
COc1ccc(C)cc1NC(=O)CCl [PCM-0103043, COc1ccc(C)cc1NC(=O)CCl]	6	27	-16.699	-16.699			
CS(=O)(=O)c1ccc(F)c(NC(=O)CCl)c1 [PCM-0103018, CS(=O)(=O)c1ccc(F)c(NC(=O)CCl)c1]	0	16	-15.950	-15.950			
CSc1ccc(NC(=O)CCl)cc1 [PCM-0102772, CSc1ccc(NC(=O)CCl)cc1]	13	28	-15.893	-15.893			
CC1CCCCC1NC(=O)NC(=O)CCl (centres unmarked) [PCM-0102292, CC1CCCCC1NC(=O)NC(=O)CCl]	0				24	-15.785	-15.785
CN(CC12CC3CC(CC(C3)C1)C2)C(=O)CCl [PCM-0102942, CN(CC12CC3CC(CC(C3)C1)C2)C(=O)CCl]	26	10	-15.698	-15.698			
O=C(CCl)NC(=O)NCC1COc2ccccc2O1 (centres unmarked) [PCM-0102092, O=C(CCl)NC(=O)NCC1COc2ccccc2O1]	0				0	-15.940	-15.940
O=C(CCl)NCC1CCCO1 (centres unmarked) [PCM-0102356, O=C(CCl)NCC1CCCO1]	0				5	-16.672	-16.672
Cc1ccccc1NC(=O)CCl [PCM-0102887, Cc1ccccc1NC(=O)CCl]	0	0	-16.445	-16.445			
CC(NC(=O)CCl)c1ccc(F)cc1F (centres unmarked) [PCM-0103035, CC(NC(=O)CCl)c1ccc(F)cc1F]	15	34	-15.881	-15.881			
CC(c1ccc(Cl)cc1)N(C)C(=O)CCl (centres unmarked) [PCM-0102556, CC(c1ccc(Cl)cc1)N(C)C(=O)CCl]	39				0	-15.842	-15.842
